Reference: patent US9101638B2, “Boronic acid derivatives and therapeutic uses thereof” (Rempex Pharmaceuticals, Inc., priority 2013, dated 2015)

Tests used:
KP1005 (CTX-M-14) = assay: Potentiation of aztreonam, strain KP1005; format: cell-based
CTX-M-14 = CTX-M-14 (Escherichia coli, UniProt Q9L5C7); assay: Inhibition of nitrocefin cleavage by purified CTX-M-14; format: biochemical; conditions: nitrocefin reporter substrate, purified enzyme; read-out: Ki (CTX-M-14, NCF)
Protocol: (§1) Purified enzymes were mixed with various concentrations of inhibitors in reaction buffer and incubated for 10 min at room temperature. Nitrocefin was added and substrate cleavage profiles were recorded at 490 nm every 10 sec for 10 min.

SHV-12 = SHV-12 (Klebsiella pneumoniae, UniProt P0AD64, E235K/G234S/L31Q); assay: Inhibition of nitrocefin cleavage by purified SHV-12; format: biochemical; conditions: nitrocefin reporter substrate, purified enzyme; read-out: Ki (SHV-12, NCF)
Sequence of SHV-12 (P0AD64 22-286 L31Q/G234S/E235K): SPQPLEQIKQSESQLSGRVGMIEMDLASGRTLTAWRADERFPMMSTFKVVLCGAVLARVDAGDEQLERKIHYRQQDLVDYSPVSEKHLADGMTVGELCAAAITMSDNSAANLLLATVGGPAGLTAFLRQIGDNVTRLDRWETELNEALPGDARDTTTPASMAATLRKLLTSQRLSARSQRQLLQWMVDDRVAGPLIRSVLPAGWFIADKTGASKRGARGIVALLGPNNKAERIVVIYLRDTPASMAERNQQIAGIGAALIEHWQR
Protocol: as §1

ec302 (TEM-10) [1] = assay: Potentiation of aztreonam, strain ec302; format: cell-based
ec308 (SHV-5) [2] = assay: Potentiation of aztreonam, strain ec308; format: cell-based; conditions: minimum BLI concentration inhibiting growth with 4 μg/mL aztreonam
ec308 (SHV-5) [3] = assay: Potentiation of tigemonam, strain ec308; format: cell-based; conditions: minimum BLI concentration inhibiting growth with 4 μg/mL tigemonam
P99 = P99 (Enterobacter cloacae, UniProt P05364); assay: Inhibition of nitrocefin cleavage by purified P99; format: biochemical; conditions: nitrocefin reporter substrate, purified enzyme; read-out: Ki (P99, NCF)
Sequence of P99 (P05364 21-381): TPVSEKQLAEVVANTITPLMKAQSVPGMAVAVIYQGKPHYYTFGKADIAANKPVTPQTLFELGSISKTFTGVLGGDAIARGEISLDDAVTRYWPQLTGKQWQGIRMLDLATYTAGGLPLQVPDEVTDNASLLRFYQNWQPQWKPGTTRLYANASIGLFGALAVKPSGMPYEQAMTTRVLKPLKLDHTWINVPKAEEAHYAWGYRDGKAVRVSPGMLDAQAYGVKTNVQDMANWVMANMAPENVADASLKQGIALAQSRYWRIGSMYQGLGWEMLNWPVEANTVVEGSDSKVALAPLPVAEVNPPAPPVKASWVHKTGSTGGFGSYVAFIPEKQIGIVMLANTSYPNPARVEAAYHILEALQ
Protocol: as §1

KP1004 (K-2) = assay: Potentiation of aztreonam, strain KP1004; format: cell-based; conditions: minimum BLI concentration inhibiting growth with 4 μg/mL aztreonam
PAM1154/KPC-2 = assay: Biapenem potentiation in PAM1154/KPC-2 (MexAB-OprM lacking); format: cell-based, Pseudomonas aeruginosa
Protocol: (§2) Efflux of BLIs from Pseudomonas aeruginosa by the MexAB-OprM efflux pump was also evaluated. […] Due to expression of KPC-2 both strains became resistant to biapenem. […] Potency of BLIs to potentiate biapenem in these strains was determined. […] The ratio of MPC64 values for each BLI in PAM1032/KPC-2 (efflux proficient) and PAM1154/KPC-2 (efflux deficient) was determined to generate the Efflux Index (EI).

ECL1002 = assay: Potentiation of aztreonam, strain ECL1002; format: cell-based; conditions: minimum BLI concentration inhibiting growth with 4 μg/mL aztreonam
OXA-48 = OXA-48 (Klebsiella pneumoniae, UniProt Q6XEC0); assay: Inhibition of nitrocefin cleavage by purified OXA-48; format: biochemical; conditions: nitrocefin reporter substrate, purified enzyme; read-out: Ki (OXA-48, NCF)
Sequence of OXA-48 (Q6XEC0 23-265 limits assumed): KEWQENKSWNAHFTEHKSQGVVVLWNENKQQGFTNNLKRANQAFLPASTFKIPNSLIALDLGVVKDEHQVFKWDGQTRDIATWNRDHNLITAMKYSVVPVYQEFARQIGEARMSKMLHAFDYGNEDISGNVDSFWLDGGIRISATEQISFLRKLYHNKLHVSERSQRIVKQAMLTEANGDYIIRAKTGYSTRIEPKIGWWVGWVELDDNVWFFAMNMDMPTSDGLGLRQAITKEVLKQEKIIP
Protocol: as §1

EC1010 (CMY-6) [4] = format: cell-based
KP1009 (CTX-M-15) [5] = assay: Potentiation of aztreonam, strain KP1009; format: cell-based
PAM1032/KPC-2 = assay: Biapenem potentiation in PAM1032/KPC-2 (MexAB-OprM overexpressed); format: cell-based, Pseudomonas aeruginosa; conditions: BLI potency to decrease biapenem MIC 64-fold, 32 to 0.5 μg/ml; efflux proficient strain
Protocol: as §2

EC1010 (CMY-6) [6] = assay: Potentiation of aztreonam, strain EC1010; format: cell-based
CathepsinG = target: T1, CathepsinG (Homo sapiens, UniProt P08311); assay: Serine protease inhibition: cathepsin G; format: biochemical, mammalian; conditions: Table 8B
T1 construct: purchased EMD Millipore 219373
T1 sequence (P08311 21-244): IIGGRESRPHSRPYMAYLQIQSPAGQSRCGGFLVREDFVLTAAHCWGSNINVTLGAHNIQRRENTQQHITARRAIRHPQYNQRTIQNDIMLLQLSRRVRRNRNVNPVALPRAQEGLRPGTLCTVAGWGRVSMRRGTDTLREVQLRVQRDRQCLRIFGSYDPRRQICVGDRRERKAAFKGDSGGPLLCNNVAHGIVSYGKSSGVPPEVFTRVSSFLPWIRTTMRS
Protocol: (§3) The effect of selected BLIs on the enzymatic activity of some common mammalian serine proteases was evaluated.
(§4) 50 μl of the diluted enzyme was mixed with 50 μl of inhibitor at various concentrations and 50 μl of corresponding buffer (Table 7). Reaction mixtures were incubated for 10 min at 37° C. Subsequently, 50 μl of corresponding substrate (Table 7) was added and absorbance or fluorescence was monitored for 30 min on SpectraMax M2 plate reader (Molecular Devices). 4-(2-Aminoethyl)benzenesulfonyl fluoride hydrochloride (AEBSF) and leupeptin were used as positive controls. Rates of reaction were calculated and presented relative to “no treatment” control.

CathepsinA = target: T2, CathepsinA (Homo sapiens, UniProt P10619); assay: Serine protease inhibition: cathepsin A; format: biochemical, mammalian; conditions: Table 8B; read-out: IC50 CathepsinA
T2 construct: purchased R&D Systems 1049-SE
T2 sequence (P10619 29-480): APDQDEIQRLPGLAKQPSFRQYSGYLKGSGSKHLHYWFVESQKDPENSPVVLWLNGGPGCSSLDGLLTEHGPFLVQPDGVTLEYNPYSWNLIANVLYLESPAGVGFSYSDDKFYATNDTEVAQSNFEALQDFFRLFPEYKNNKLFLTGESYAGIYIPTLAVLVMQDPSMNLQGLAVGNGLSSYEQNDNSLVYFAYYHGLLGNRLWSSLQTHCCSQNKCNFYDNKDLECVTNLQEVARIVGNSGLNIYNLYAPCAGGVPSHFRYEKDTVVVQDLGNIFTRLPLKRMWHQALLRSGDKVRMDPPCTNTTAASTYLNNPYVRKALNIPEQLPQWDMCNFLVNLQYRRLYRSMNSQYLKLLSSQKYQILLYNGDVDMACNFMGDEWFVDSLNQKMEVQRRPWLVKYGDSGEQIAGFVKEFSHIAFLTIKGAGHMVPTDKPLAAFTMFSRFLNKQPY
Protocol: as §3, §4

ec302 (TEM-10) [7] = assay: Potentiation of tigemonam, strain ec302; format: cell-based
KP1009 (CTX-M-15) [8] = assay: Potentiation of tigemonam, strain KP1009; conditions: minimum BLI concentration inhibiting growth with 4 μg/mL tigemonam
KPC-2 = KPC-2 (Klebsiella pneumoniae, UniProt Q9F663); assay: Inhibition of nitrocefin cleavage by purified KPC-2; format: biochemical; conditions: nitrocefin reporter substrate, purified enzyme; read-out: Ki (KPC-2, NCF)
Sequence of KPC-2 (Q9F663 25-293, looked up, species assumed): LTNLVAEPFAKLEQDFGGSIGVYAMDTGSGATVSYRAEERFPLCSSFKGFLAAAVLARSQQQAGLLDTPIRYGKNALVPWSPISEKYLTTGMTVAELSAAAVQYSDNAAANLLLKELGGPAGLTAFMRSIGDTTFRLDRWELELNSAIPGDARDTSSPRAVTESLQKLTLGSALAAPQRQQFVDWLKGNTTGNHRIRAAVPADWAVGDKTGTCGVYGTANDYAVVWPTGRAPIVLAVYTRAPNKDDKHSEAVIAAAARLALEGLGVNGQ
Protocol: as §1

Chymase = target: T3, Chymase (Homo sapiens, UniProt P23946); assay: Serine protease inhibition: chymase; format: biochemical, mammalian; conditions: Table 8A, class symbols; read-out: IC50 Chymase
T3 construct: purchased Enzo Lifescience BML-SE281
T3 sequence (P23946 22-247): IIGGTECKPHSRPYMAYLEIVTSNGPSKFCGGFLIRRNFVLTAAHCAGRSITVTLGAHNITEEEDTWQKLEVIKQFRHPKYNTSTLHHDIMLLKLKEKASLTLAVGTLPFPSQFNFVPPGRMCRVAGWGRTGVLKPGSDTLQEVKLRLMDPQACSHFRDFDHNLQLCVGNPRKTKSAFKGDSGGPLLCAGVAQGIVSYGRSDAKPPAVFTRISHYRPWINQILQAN
Protocol: as §3, §4

Chymotrypsin = target: T4, Chymotrypsin (Bos taurus, UniProt P00766); assay: Serine protease inhibition: chymotrypsin; format: biochemical, mammalian; conditions: Table 8A, class symbols; read-out: IC50 Chymotrypsin
T4 construct: purchased Calbiochem 230832
Protocol: as §3, §4

Neutrophil elastase = target: T5, Neutrophil elastase (Homo sapiens, UniProt P08246); assay: Serine protease inhibition: neutrophil elastase; format: biochemical, mammalian; conditions: Table 8B; read-out: IC50 Neutrophil elastase
T5 construct: purchased Calbiochem 324681
T5 sequence (P08246 30-267): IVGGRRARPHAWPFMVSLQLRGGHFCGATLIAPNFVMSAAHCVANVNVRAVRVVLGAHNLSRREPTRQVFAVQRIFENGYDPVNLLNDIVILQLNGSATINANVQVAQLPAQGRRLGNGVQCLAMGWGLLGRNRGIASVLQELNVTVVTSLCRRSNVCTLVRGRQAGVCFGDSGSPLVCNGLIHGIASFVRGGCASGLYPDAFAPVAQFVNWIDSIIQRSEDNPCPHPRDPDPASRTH
Protocol: as §3, §4

[9] = target: T6, Dipeptidyl peptidase 8 (DPP8) (Homo sapiens, UniProt Q6V1X1); assay: Serine protease inhibition: DPP8; format: biochemical, mammalian; conditions: Table 8B; read-out: IC50 DPP8
T6 construct: purchased BPS Bioscience 80080
T6 sequence (Q6V1X1 whole entry): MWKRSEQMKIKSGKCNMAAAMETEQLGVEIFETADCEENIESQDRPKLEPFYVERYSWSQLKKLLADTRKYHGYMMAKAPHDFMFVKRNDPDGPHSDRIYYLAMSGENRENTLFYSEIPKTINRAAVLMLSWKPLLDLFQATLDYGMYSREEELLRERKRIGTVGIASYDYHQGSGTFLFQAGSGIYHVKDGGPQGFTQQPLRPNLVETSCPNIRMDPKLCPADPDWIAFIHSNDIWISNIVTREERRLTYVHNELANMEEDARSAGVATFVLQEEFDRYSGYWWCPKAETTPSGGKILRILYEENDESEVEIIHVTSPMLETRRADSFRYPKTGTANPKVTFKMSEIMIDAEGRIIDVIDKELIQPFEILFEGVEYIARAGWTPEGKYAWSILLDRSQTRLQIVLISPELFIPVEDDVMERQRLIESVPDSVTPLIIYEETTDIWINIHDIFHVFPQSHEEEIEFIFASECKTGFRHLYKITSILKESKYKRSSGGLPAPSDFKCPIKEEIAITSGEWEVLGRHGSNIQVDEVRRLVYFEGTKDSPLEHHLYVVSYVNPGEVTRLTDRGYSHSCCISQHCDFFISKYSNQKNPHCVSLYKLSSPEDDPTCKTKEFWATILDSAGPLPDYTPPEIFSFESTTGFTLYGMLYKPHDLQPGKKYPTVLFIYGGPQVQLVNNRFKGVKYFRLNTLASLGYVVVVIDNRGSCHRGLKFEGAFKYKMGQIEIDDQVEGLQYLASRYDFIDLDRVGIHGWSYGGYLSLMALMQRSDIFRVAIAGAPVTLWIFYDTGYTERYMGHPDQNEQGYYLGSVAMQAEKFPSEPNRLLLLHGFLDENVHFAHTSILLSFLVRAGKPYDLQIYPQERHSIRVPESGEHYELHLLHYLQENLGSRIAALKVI
Protocol: as §3, §4

Thrombin = target: T7, Thrombin (Homo sapiens, UniProt P00734); assay: Serine protease inhibition: thrombin; format: biochemical, mammalian; conditions: Table 8A, class symbols; read-out: IC50 Thrombin
T7 construct: Thrombin; MPBio; 19491880; purchased MPBio 19491880
Protocol: as §3, §4

[10] = target: T8, Dipeptidyl peptidase 9 (DPP9) (Homo sapiens, UniProt Q86TI2); assay: Serine protease inhibition: DPP9; format: biochemical, mammalian; conditions: Table 8B; read-out: IC50 DPP9
T8 construct: purchased BPS Bioscience 80090
T8 sequence (Q86TI2 whole entry): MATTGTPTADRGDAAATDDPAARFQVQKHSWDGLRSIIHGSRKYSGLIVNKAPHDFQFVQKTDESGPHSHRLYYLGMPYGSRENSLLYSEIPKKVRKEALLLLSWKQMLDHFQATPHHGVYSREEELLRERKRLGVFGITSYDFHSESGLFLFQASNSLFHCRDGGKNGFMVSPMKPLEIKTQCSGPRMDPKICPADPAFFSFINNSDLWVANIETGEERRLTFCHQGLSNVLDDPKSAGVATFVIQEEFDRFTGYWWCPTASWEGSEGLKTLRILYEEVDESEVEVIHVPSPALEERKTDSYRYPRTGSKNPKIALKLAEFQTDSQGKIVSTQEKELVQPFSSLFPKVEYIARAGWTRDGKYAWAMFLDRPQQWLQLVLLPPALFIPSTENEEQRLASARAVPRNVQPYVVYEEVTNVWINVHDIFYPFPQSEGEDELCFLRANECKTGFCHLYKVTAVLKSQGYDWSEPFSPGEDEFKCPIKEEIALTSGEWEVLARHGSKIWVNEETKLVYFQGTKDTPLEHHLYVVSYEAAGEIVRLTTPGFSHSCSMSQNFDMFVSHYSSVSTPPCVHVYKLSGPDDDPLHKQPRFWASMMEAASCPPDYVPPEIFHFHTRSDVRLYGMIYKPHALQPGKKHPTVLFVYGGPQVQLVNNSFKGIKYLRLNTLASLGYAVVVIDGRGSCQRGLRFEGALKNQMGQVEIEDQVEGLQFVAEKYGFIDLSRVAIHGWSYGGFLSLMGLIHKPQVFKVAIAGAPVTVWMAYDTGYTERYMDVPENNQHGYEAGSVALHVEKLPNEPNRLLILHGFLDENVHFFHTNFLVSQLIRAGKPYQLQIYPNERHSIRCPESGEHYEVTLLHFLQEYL
Protocol: as §3, §4

Sequence of CTX-M-14 (Q9L5C7 entry or part of it): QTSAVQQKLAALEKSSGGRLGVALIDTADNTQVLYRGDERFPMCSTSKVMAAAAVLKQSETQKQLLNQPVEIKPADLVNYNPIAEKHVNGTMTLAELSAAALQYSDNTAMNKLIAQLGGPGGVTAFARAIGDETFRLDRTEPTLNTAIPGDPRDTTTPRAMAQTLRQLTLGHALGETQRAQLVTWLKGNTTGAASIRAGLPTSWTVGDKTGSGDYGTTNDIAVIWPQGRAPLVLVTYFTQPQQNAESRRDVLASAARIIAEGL

SMILES | AZT MPC4 CTX-M-14 KP1005 (KP1005 (CTX-M-14)) | Ki (CTX-M-14) | Ki (SHV-12) | AZT MPC4 TEM-10 ec302 (ec302 (TEM-10) [1]) | AZT MPC4 SHV-5 ec308 (ec308 (SHV-5) [2]) | TIG MPC4 SHV-5 ec308 (ec308 (SHV-5) [3]) | AZT MPC4 K-2 KP1004 (KP1004 (K-2)) | AZT MPC4 ECL1002 (ECL1002) | TIG MPC4 CMY-6 EC1010 (EC1010 (CMY-6) [4]) | AZT MPC4 CTX-M-15 KP1009 (KP1009 (CTX-M-15) [5]) | AZT MPC4 CMY-6 EC1010 (EC1010 (CMY-6) [6]) | IC50 (CathepsinG) | IC50 (CathepsinA) | TIG MPC4 TEM-10 ec302 (ec302 (TEM-10) [7]) | TIG MPC4 CTX-M-15 KP1009 (KP1009 (CTX-M-15) [8]) | also measured
O=C(N[C@H]1Cc2cccc(C(=O)O)c2OB1O)c1cccnc1 [Compound 12, (R)-2-hydroxy-3-(nicotinamido)-3,4-dihydro-2H-benzo[e][1,2]oxaborinine-8-carboxylic acid] | Y (key: X = MIC of less than 1 μg/mL; Y = MIC of 1 μg/mL to 10 μg/mL; Z = MIC of greater than 10 μg/mL) | < 0.001 µM | < 0.001 µM | X (key: X = MIC of less than 1 μg/mL; Y = MIC of 1 μg/mL to 10 μg/mL; Z = MIC of greater than 10 μg/mL) | Y (Y = MIC of 1 μg/mL to 10 μg/mL) | Y (Y = MIC of 1 μg/mL to 10 μg/mL) | Y (Y = MIC of 1 μg/mL to 10 μg/mL) | X (X = MIC of less than 1 μg/mL) | Y (key: X = MIC of less than 1 μg/mL; Y = MIC of 1 μg/mL to 10 μg/mL; Z = MIC of greater than 10 μg/mL) | Y (key: X = MIC of less than 1 μg/mL; Y = MIC of 1 μg/mL to 10 μg/mL; Z = MIC of greater than 10 μg/mL) | Y (key: X = MIC of less than 1 μg/mL; Y = MIC of 1 μg/mL to 10 μg/mL; Z = MIC of greater than 10 μg/mL) | < 15 µM | 15 to 500 µM | Y (key: X = MIC of less than 1 μg/mL; Y = MIC of 1 μg/mL to 10 μg/mL; Z = MIC of greater than 10 μg/mL) | Y (Y = MIC of 1 μg/mL to 10 μg/mL) | Ki (P99): < 0.001 µM; PAM1154/KPC-2 Biapenem MPC64 (PAM1154/KPC-2): X (key: X = Less than 10; Y = 10 to 40; Z Greater than 40); Ki (OXA-48): < 0.001 µM; PAM1032/KPC-2 Biapenem MPC64 (PAM1032/KPC-2): Z (Z Greater than 40)
O=C(COCc1ccccc1)N[C@H]1Cc2cccc(C(=O)O)c2OB1O [CPD B, reference compound] | Z (key: X = MIC of less than 1 μg/mL; Y = MIC of 1 μg/mL to 10 μg/mL; Z = MIC of greater than 10 μg/mL) | < 0.001 µM | < 0.001 µM | Z (key: X = MIC of less than 1 μg/mL; Y = MIC of 1 μg/mL to 10 μg/mL; Z = MIC of greater than 10 μg/mL) | Y (Y = MIC of 1 μg/mL to 10 μg/mL) | Y (Y = MIC of 1 μg/mL to 10 μg/mL) | Z (Z = MIC of greater than 10 μg/mL) | Z (Z = MIC of greater than 10 μg/mL) | Y (key: X = MIC of less than 1 μg/mL; Y = MIC of 1 μg/mL to 10 μg/mL; Z = MIC of greater than 10 μg/mL) | Z (key: X = MIC of less than 1 μg/mL; Y = MIC of 1 μg/mL to 10 μg/mL; Z = MIC of greater than 10 μg/mL) | Z (key: X = MIC of less than 1 μg/mL; Y = MIC of 1 μg/mL to 10 μg/mL; Z = MIC of greater than 10 μg/mL) | 15 to 500 µM | 15 to 500 µM | Z (key: X = MIC of less than 1 μg/mL; Y = MIC of 1 μg/mL to 10 μg/mL; Z = MIC of greater than 10 μg/mL) | Z (Z = MIC of greater than 10 μg/mL) | Ki (KPC-2): > 0.01 µM; IC50 (Chymase): 300 to 800 µM; IC50 (Chymotrypsin): > 800 µM; IC50 (Neutrophil elastase): > 500 µM; IC50 [9]: 15 to 500 µM; IC50 (Thrombin): > 800 µM; IC50 [10]: > 500 µM
